According to patent publication US7557116B2, “Substance which exhibits antiviral and antibacterial activity and is based on derivatives of 2,8-dithioxo-1H-pyrano[2,3d 6,5-d′]dipyrimidyne and 10-aza-analogue thereof” (priority 2003, dated 2009):
Marks after values point to notes of the source that are not given here.

Legend:
Type in all cases: cell-based
[1] = tested on: Chlamydia trachomatis D323; assay: Protection of cell culture from Chlamydia trachomatis (immunofluorescence, cytoplasmatic inclusions)
From the text: The antiviral activity of the claimed compounds were also all tested against the Chlemydia trachomatis. The effects of the claimed compounds on the Chlamydia trachomatis are charted in TABLE 4. A relative strain of Chlamydia trachomatis D323 was used to test the claimed compounds. The strain, derived from a patient with Chlamydia urethritis, comprised a morphology and a physiological activity characteristic of and representative of that type. An infection dose of Chlamydia having a concentration of 1/10^6 cells/ml was introduced into a cell culture. Immunofluorescence (MicroTrack Chlamydia trachomatis Direct Specimen Test) was conducted to determine the significance of the chlamydial cytoplasmatic inclusions (CPI). A CylaMonoScreen was conducted to obtain the chlamydia antigens. The monolayer state and the number of cells with CPI were compared to the control to determine the effects the claimed compounds have on the chlamydia. The number of unchanged cells in 100 visual fields were counted utilizing a special net on a microscopic eyepiece.

[2] = tested on: Herpes virus of type I; assay: Protection of Vero cells from Herpes virus of type I; conditions: for Number of cells: number of cells in 100 fields
[3] = tested on: Influenza virus B; conditions: Influenza virus B; 72 hours at 33-34 C; ineffective when IN less than 1.0
[4] = tested on: Influenza virus A; conditions: Influenza virus A; 48 hours at 33-34 C; ineffective when IN less than 1.0

Molecule | Percentage of cells' defense from C. trachomatis ([1]; compound 30 mg/l) | Percentage of cells' defense from C. trachomatis ([1]; compound 100 mg/l) | percentage of protection of cells from virus ([2]; compound 10 mg/l) | percentage of protection of cells from virus ([2]; compound 50 mg/l) | percentage of protection of cells from virus ([2]; compound 100 mg/l) | Number of cells ([2]; compound 10 mg/l) | Number of cells ([2]; compound 50 mg/l) | Number of cells ([2]; compound 100 mg/l) | Index of neutralization [3] | Index of neutralization [4]
O=[N+]([O-])c1ccc(C2c3c(O)nc(=S)[nH]c3Oc3[nH]c(=S)nc(O)c32)cc1 [XII] | 40% | 60% | 10% | 30% | 50% | 1200 | 3600 | 6000 |  | 
Nc1nc(=S)[nH]c2c1C(c1ccc([N+](=O)[O-])cc1)c1c(Cl)nc(=S)[nH]c1O2 (stereo not drawn) [IV, 4-chlorine-6-amino-5-(4-dinytrophenyl)-5,9-dihydro-1H-pyrano[2,3-d: 6,5-d′]dipyrimidine-2,8-dition] | 50% | 80% | 50% | 70% | 80% | 6000 | 8400 | 9600 | 1.5 | 2.0
Nc1nc2c(ncn2COCCO)c(=O)[nH]1 [Acyclovir, reference compound] |  |  | (80%)**** |  |  | 9600*** |  |  |  | 
Nc1nc(=S)[nH]c2c1C(c1ccc([N+](=O)[O-])cc1)c1c(N)nc(=S)[nH]c1N2 [VI, 4,5-diamino-10-(4-nytrophenyl)-9,10-dihydro-1H,8H-1,3,6,8,9-pentaazaantrecen-2,7dition] | 50% | 80% | 70% | 90% | 100% | 8400 | 10800 | 12000 | 1.5 | 20
CNc1nc(=S)[nH]c2c1C(c1ccc([N+](=O)[O-])cc1)c1c(O)nc(=S)[nH]c1O2 (stereo not drawn) [VIII, 4-methylamino-6-hydroxi-5-(4-nitrophenyl)-5,9-dihydro-1H-pyrano[2,3d: 6,5-d′]dipyrimidine-2,8-dition] | 70% | 90% |  |  |  |  |  |  | 1.5 | 2.0
O=[N+]([O-])c1ccc(C2c3cnc(=S)[nH]c3Oc3[nH]c(=S)nc(O)c32)cc1 (stereo not drawn) [XI, 6-hydroxi-5-4-(4-nitrophenyl)-5,9-dihydro-1H-pyrano[2,3-d: 6,5-d′]dipyrimidine-2,8-dition] | 50% | 90% | 50% | 70% | 80% | 6000 | 8400 | 9600 | 1.5 | 1.5
4-chlorine-6-hydroxi-5-aryl-5,9-dihydro-1H-pyrano[2,3d: 6,5-d′]dipyrimidine-2-8-dition [Iib] |  |  | 70% | 90% | 100% | 8400 | 10800 | 12000 |  | 
Oc1nc(=S)[nH]c2c1C(c1ccccc1)c1c(Cl)nc(=S)[nH]c1O2 (stereo not drawn) [Ia, 4-chlorine-6-hydroxi-5-aryl-5,9-dihydro-1H-pyrano[2,3d: 6,5-d′]dipyrimidine-2,8-dition] |  |  | 60% | 80% | 90% | 7200 | 9600 | 10800 |  | 
O=[N+]([O-])c1ccc(C2c3c(Cl)nc(=S)[nH]c3Oc3[nH]c(=S)nc(Cl)c32)cc1 [Iia, 4,6-dichlorine-5-(4-nitrophenyl)-5,9-dihydro-1H-pyrano[2,3-d: 6,5-d′]dipyrimidine-2,8-dition] | 70% | 90% |  |  |  |  |  |  | 1.5 | 1.5
